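Each compound was tested at five concentrations against cells in 96-well plates for 48 hours. The concentration for 50% growth inhibition is given as GI50. Definition used: TGI = concentration required for complete inhibition of growth.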
How the values were obtained:
Experiment in all cases: NCI-60 cell line screen, 48 h
SF-295 CNS = test system: SF-295 CNS
SF-539 CNS = test system: SF-539 CNS
HT29 colon = test system: HT29 colon
HL-60(TB) leukemia = test system: HL-60(TB) leukemia
KM12 colon = test system: KM12 colon
MALME-3M melanoma = test system: MALME-3M melanoma
HOP-92 NSCLC = test system: HOP-92 NSCLC
CCRF-CEM leukemia = test system: CCRF-CEM leukemia
SK-MEL-5 melanoma = test system: SK-MEL-5 melanoma
HS 578T breast = test system: HS 578T breast

| Compound | TGI (SF-295 CNS) [µM] | TGI (SF-539 CNS) [µM] | TGI (HT29 colon) [µM] | TGI (HL-60(TB) leukemia) [µM] | TGI (KM12 colon) [µM] | TGI (MALME-3M melanoma) [µM] | TGI (HOP-92 NSCLC) [µM] | TGI (CCRF-CEM leukemia) [µM] | TGI (SK-MEL-5 melanoma) [µM] | TGI (HS 578T breast) [µM] | GI50 (SF-295 CNS) [µM] | GI50 (SF-539 CNS) [µM] | GI50 (HT29 colon) [µM] | GI50 (HL-60(TB) leukemia) [µM] | GI50 (KM12 colon) [µM] | GI50 (MALME-3M melanoma) [µM] | GI50 (HOP-92 NSCLC) [µM] | GI50 (CCRF-CEM leukemia) [µM] | GI50 (SK-MEL-5 melanoma) [µM] | GI50 (HS 578T breast) [µM] |
| --- | --- | --- | --- | --- | --- | --- | --- | --- | --- | --- | --- | --- | --- | --- | --- | --- | --- | --- | --- | --- |
| CNC(=O)N(C)C(=O)c1ccccc1C(=O)N(C)C(=O)NC | > 10 | > 10 | > 10 | > 10 | > 10 | > 10 | > 10 | > 10 | > 10 | > 10 | – | – | – | – | – | – | – | – | – | – |
| CNc1nc(OC)c2c(n1)[n+](C)cn2C | > 100 | > 100 | > 100 | > 100 | > 100 | > 100 | > 100 | > 100 | > 100 | > 100 | – | – | – | – | – | – | – | – | – | – |
| N#Cc1c2c(c(Nc3ccc(Cl)cc3)n3c1nc1ccccc13)CCCC2 | > 100 | > 100 | > 100 | > 100 | > 100 | > 100 | > 100 | > 100 | > 100 | > 87.4 | – | – | – | – | – | – | – | – | – | – |
| Cc1cc(N(CCCl)CCCl)ccc1/C=N\NC(=O)c1cccnc1 | 28.3 | > 100 | > 100 | 26.4 | > 100 | 83.7 | 59.3 | > 100 | 39.1 | > 100 | 4.17 | 13.9 | 30.3 | 4.3 | 34.4 | 26.2 | 17.3 | 9.23 | 15.7 | 48.6 |
| CC(=O)OC/C=C/Cn1nc(Br)c(=O)[nH]c1=O | > 100 | > 100 | > 100 | > 100 | > 100 | > 100 | > 100 | > 100 | > 100 | > 100 | – | – | – | – | – | – | – | – | – | – |
| CC(=O)Oc1c(OC(C)C)cc(=O)n2ccsc12 | > 100 | > 100 | > 100 | 58.7 | > 100 | > 100 | > 100 | 70.4 | > 100 | > 100 | – | – | – | – | – | – | – | – | – | – |
| O=C(Cn1c(-c2ccccc2)cc2ccccc21)N1CCOCC1 | > 100 | > 100 | > 100 | > 100 | > 100 | > 100 | > 100 | > 100 | > 100 | > 100 | – | – | – | – | – | – | – | – | – | – |
| O=C1CSC(c2cccc(Oc3ccccc3)c2)N1c1cc(Cl)ccc1Cl (stereo not given) | 55.3 | 35.6 | 50.5 | > 100 | 79.2 | 57.6 | 42.7 | > 100 | 31.3 | 77.7 | – | – | – | – | – | – | – | – | – | – |
| O=C(CCc1ccccc1)NCCc1ccc(O)c(O)c1 | > 94.9 | > 87.5 | > 69.3 | 14.3 | > 94.4 | > 100 | > 78.7 | 27.1 | > 50.6 | > 100 | – | – | – | – | – | – | – | – | – | – |
| CC(C)[C@H](NC(=O)OCc1ccccc1)C(=O)N[C@H](/C=C/C(=O)OC(C)(C)C)CO | > 100 | > 100 | > 100 | > 100 | > 100 | > 100 | > 100 | > 100 | > 100 | > 100 | – | – | – | – | – | – | – | – | – | – |
| CC(=O)CC(=O)N1CCOC1=O | > 10 | > 10 | > 10 | > 10 | > 10 | > 10 | > 10 | > 10 | > 10 | > 10 | – | – | – | – | – | – | – | – | – | – |
| C/C(=C\CNc1ncnc2c1ncn2CCC#N)CO | > 100 | > 100 | > 100 | > 100 | > 100 | > 100 | > 100 | > 100 | > 100 | > 100 | – | – | – | – | – | – | – | – | – | – |
| Nc1nc2c(c(-c3ccc(F)cc3)n1)COC/C2=C\c1ccc(F)cc1 | > 100 | > 100 | 29.3 | > 100 | 29 | 35.1 | > 100 | > 100 | > 100 | > 100 | – | – | – | – | – | – | – | – | – | – |
| CCCCCNC(=O)OC1CCn2c1nc1c2C(=O)C(C)=C(N2CC2)C1=O (stereo not given) | 2.69 | 5.33 | 2.77 | > 100 | 3.48 | 4.27 | 72 | > 100 | 1.73 | 6.24 | – | – | – | – | – | – | – | – | – | – |
| CN1Cc2c(ccc3c2OCO3)[C@@H]2[C@H](O)Cc3cc4c(cc3[C@@H]21)OCO4 | 21.6 | 4.6 | 5.12 | 4.36 | 12.4 | > 100 | > 100 | > 29.2 | 40 | > 100 | – | – | – | – | – | – | – | – | – | – |
| COc1cc(CC2C(=O)OCC2Cc2ccc(OC)c(OC)c2)ccc1O (stereo not given) | > 100 | > 100 | > 100 | > 100 | > 100 | > 100 | > 100 | > 100 | > 100 | > 100 | – | – | – | – | – | – | – | – | – | – |
